Values quoted from earlier work, collected in US20160361342A1, “USE OF ALGINATE OLIGOMERS IN THE TREATMENT OF CYSTIC FIBROSIS AND OTHER CONDITIONS ASSOCIATED WITH DEFECTIVE CFTR ION CHANNEL FUNCTION” (ALGIPHARAMA AS, priority 2014, published 2016).

System: ileum explants from mutant mice
Conditions: apical medium supplemented with sodium bicarbonate at levels predicted to be reached by wild type CFTR

Question: For O=C([O-])O.[Na+] [sodium bicarbonate], which attached mucus phenotype is on record?
Answer: Its attached mucus phenotype is “can be reversed”.
